Data reported in patent US12239643B2, “Therapeutic agent for inflammatory diseases, autoimmune diseases, fibrotic diseases, and cancer diseases” (MEIJI SEIKA PHARMA CO., LTD., priority 2018, dated 2025).
Like-named read-outs stand apart in the source and are kept apart here.

Experiments:
PDE4 = experiment: Evaluation of PDE4 inhibitory activity, scintillation proximity assay; type: biochemical; settings: scintillation proximity assay
Outline: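 SPA with [2,8-3H]-cAMP and diluted PDE4 enzyme preparation in 50 mM Tris-HCl pH 7.4, 8.3 mM MgCl2, 1.7 mM EGTA, 3 mg/mL BSA, 120 min at room temperature. Product captured on ZnSO4-containing YSi-SPA beads, scintillation counted; IC50 from inhibition curves vs DMSO control and no-enzyme blank.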

[1] = Hepatic metabolic stability (rat liver microsome method); type: in vitro ADME; settings: rat liver microsomes 0.5 mg/mL, test substance 1 μM, NADPH 1 mM, 37° C., 30 minutes
Method: Metabolic stability in rat liver microsomes was evaluated by the following method. First, in 100 mM of potassium phosphate buffer solution (pH 7.4), liver microsomes (concentration at reaction: 0.5 mg/mL) and the test substance (concentration at reaction: 1 μM) were preincubated at 37° C. Five minutes later, 100 mM of potassium phosphate buffer (pH 7.4) solution of NADPH (concentration at reaction: 1 mM) was mixed thereto to start the reaction. After a predetermined time passed, acetonitrile was mixed to the reaction mixture to stop the reaction. Here, the reaction time was 0 and 30 minutes, and drug concentration measurement was performed for each time period using LC-MS. The % remaining value of the test compound was calculated from the value for 0 minutes and the value for 30 minutes, using the calculation formula below: % Remaining=(Value for 30 Minutes/Value for 0 Minutes)×100
The results of measuring the rat liver microsome metabolic Stability (% remaining for 30-minute reaction) for the test compound by the above method were evaluated in accordance with the following evaluated basis; A: a % remaining rate of 75% or more, B: 60% or more and less than 75%, C: 45% or more and less than 60%, and D: less than 45%.

[2] = read-out: PDE4 Inhibitory Activity (Evaluation 1; concentration for the inhibition rate of 50%)

SMILES	IC50 (PDE4; [2]) [nM]	Residual ratio (% remaining for 30-minute reaction) [1]	IC50 (PDE4; class symbols of Evaluation 1, read-out: PDE4 Inhibitory Activity (concentration for the inhibition rate of 50%, IC50), Evaluation 1) [nM]
C[C@@H](O)COc1ccc(-c2nccs2)c2oc(N3CC4CC(C3)N4)nc12 [Example 259, (2R)-1-((2-(3,6-diazabicyclo[3.1.1]heptan-3-yl)-7-(thiazol-2-yl)benzo[d]oxazol-4-yl)oxy)propan-2-ol]	< 100	A (A: a % remaining rate of 75% or more)	–
CC(C)(O)C(F)(F)Oc1ccc(-c2nccs2)c2oc(N3CC4CCC(C3)N4)nc12 [Example 405, 1-((2-(3,8-Diazabicyclo[3.2.1]octan-3-yl)-7-(thiazol-2-yl)benzo[d]oxazol-4-yl)oxy)-1,1-difluoro-2-methylpropan-2-ol]	< 100	B (B: 60% or more and less than 75%)	–
O=C(c1ccc(-c2nccs2)c2oc(N3CC4CC(C3)N4)nc12)N1CCOCC1 [Example 359, (2-(3,6-Diazabicyclo[3.1.1]heptan-3-yl)-7-(thiazol-2-yl)benzo[d]oxazol-4-yl) (morpholino)methanone]	100 to 1000	A (A: a % remaining rate of 75% or more)	–
OCc1ccc(Oc2ccc(-c3nccs3)c3oc(N4CC5CC(C4)N5)nc23)nc1 [Example 341, (6-((2-(3,6-Diazabicyclo[3.1.1]heptan-3-yl)-7-(thiazol-2-yl)benzo[d]oxazol-4-yl)oxy)pyridin-3-yl)methanol]	< 100	A (A: a % remaining rate of 75% or more)	–
CC(C)(O)C(F)(F)Oc1ccc(-c2ccc(F)cn2)c2oc(N3CC4CCC(C3)N4)nc12 [Example 332, 1-((2-(3,8-Diazabicyclo[3.2.1]octan-3-yl)-7-(5-fluoropyridin-2-yl)benzo[d]oxazol-4-yl)oxy)-1,1-difluoro-2-methylpropan-2-ol]	< 100	A (A: a % remaining rate of 75% or more)	–
FC(F)(F)c1c(Cl)cc(-n2cccn2)c2oc(N3CC4CC(C3)N4)nc12 [Example 17, 2-(3,6-Diazabicyclo[3.1.1]heptan-3-yl)-5-chloro-7-(1H-pyrazol-1-yl)-4-(trifluoromethyl)benzo[d]oxazole]	–	B (B: 60% or more and less than 75%)	< 100
CC(O)C(F)(F)Oc1ccc(-c2nccs2)c2oc(N3CC4CC(C3)N4O)nc12 (single isomer, unassigned) [Example 372, 3-(4-(1,1-Difluoro-2-hydroxypropoxy)-7-(thiazol-2-yl)benzo[d]oxazol-2-yl)-3,6-diazabicyclo[3.1.1]heptan-6-ol]	< 100	B (B: 60% or more and less than 75%)	–
OCC(F)(F)Oc1ccc(-c2nccs2)c2oc(N3CC4CCC(C3)N4)nc12 [Example 404, 2-((2-(3,8-Diazabicyclo[3.2.1]octan-3-yl)-7-(thiazol-2-yl)benzo[d]oxazol-4-yl)oxy)-2,2-difluoroethan-1-ol]	< 100	B (B: 60% or more and less than 75%)	–
CS(=O)(=O)c1ccc(-c2nccs2)c2oc(N3CC4CC(C3)N4)nc12 [Example 347, 2-(3,6-Diazabicyclo[3.1.1]heptan-3-yl)-4-(methylsulfonyl)-7-(thiazol-2-yl)benzo[d]oxazole]	< 100	A (A: a % remaining rate of 75% or more)	–
OCc1cccnc1Oc1ccc(-c2nccs2)c2oc(N3CC4CC(C3)N4)nc12 [Example 376, (2-((2-(3,6-Diazabicyclo[3.1.1]heptan-3-yl)-7-(thiazol-2-yl)benzo[d]oxazol-4-yl)oxy)pyridin-3-yl)methanol]	< 100	A (A: a % remaining rate of 75% or more)	–
FC(F)(F)C(OCc1nnn[nH]1)c1ccc(-c2nccs2)c2oc(N3CC4CCC(C3)N4)nc12 (stereo not shown) [Example 230, 4-(1-((1H-tetrazol-5-yl)methoxy)-2,2,2-trifluoroethyl)-2-(3,8-diazabicyclo[3.2.1]octan-3-yl)-7-(thiazol-2-yl)benzo[d]oxazole]	< 100	A (A: a % remaining rate of 75% or more)	–
